From paper PMC6127852 (Journal of Enzyme Inhibition and Medicinal Chemistry, 2018)
Values after ≈ are worked out from the molar mass of the structure shown.

Columns and labels:
E. coli ESBL = assay: Broth microdilution MIC, ESBL E. coli clinical strain; format: cell-based; conditions: Escherichia coli
K. pneumoniae ESBL = assay: Broth microdilution MIC, ESBL K. pneumoniae clinical strain; format: cell-based; conditions: Klebsiella pneumoniae
Procedure: The compounds were evaluated for their in vitro anti-bacterial activity against Gram-positive bacteria: S. aureus (ATCC 25923), MRSA, methicillin-sensitive S. aureus (MSSA), E. faecalis, vancomycin-resistant E. faecium (VREF), and Gram-negative bacteria: E. coli (ATCC 25925), P. aeruginosa (ATCC 27853), A. baumannii (ATCC 19606) and ESBL-producing K. pneumoniae (ATCC 27736). Standard broth microdilution method as recommended in guidelines of Clinical and Laboratory Standards Institute[61] ^, [65] ^, [66] was applied and the minimum inhibitory concentration (MIC) of compounds was tested. In short, testing was performed in U-bottomed 96-well sterile plastic microdilution trays (Falcon 3077, Becton Dickinson Labware, Franklin Lakes, NJ) in cation (Ca^2+ and Mg^2+) adjusted Mueller–Hinton broth medium (Becton Dickinson and Co., Cockeysville, MD). All testings were performed in triplicate.

P. aeruginosa ESBL = assay: Broth microdilution MIC, ESBL P. aeruginosa clinical strain; format: cell-based; conditions: Pseudomonas aeruginosa
E. coli ATCC 25925 = assay: Broth microdilution MIC, E. coli ATCC 25925; format: cell-based; conditions: Escherichia coli, ATCC25925; Table S2
How it was run: (§1)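 CLSI broth microdilution; cation-adjusted (Ca^2+, Mg^2+) Mueller–Hinton broth; triplicate; read-out = minimum inhibitory concentration.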

P. aeruginosa ATCC 27853 = assay: Broth microdilution MIC, P. aeruginosa ATCC 27853; format: cell-based; conditions: Pseudomonas aeruginosa, ATCC27853; Table S2
How it was run: as §1

calf thymus ctDNA = assay: UV–Vis titration with ctDNA (Scatchard); format: binding; conditions: PBS, pH 7; for Hypochromic effect H/%, ctDNA: UV–Vis titration, calculated by Scatchard equation; for log Ks, ctDNA: binding constant, Scatchard
Procedure: (§2) Polynucleotides were purchased as follows: polyG–polyC, polyA–polyU (Sigma-Aldrich, St. Louis, MO), calf thymus ctDNA (Aldrich). Polynucleotides were dissolved in PBS buffer, I = 0.05 mol dm^−3, pH 7.0. The calf thymus ctDNA was additionally sonicated and filtered through a […] filter. The polynucleotide concentration was spectroscopically determined as the concentration of nucleobases.
(§3) All UV–Vis absorbance measurements were conducted on a Perkin Elmer Lambda 25 spectrophotometer (Perkin Elmer, Waltham, MA). A quartz cell with a 1 cm path length was used for all absorbance studies. Compound stock solutions were 1 mM. The DNA/RNA at increasing ratios was then titrated into the compound buffer solution (1.48 × 10^−5 mol dm^−3) and the corresponding absorption spectra were recorded under the same conditions. All data were graphed and analysed using Origin software version 9.0 (OriginLab Corporation, Northampton, MA). The stability constants (Ks) and [bound compound]/[polynucleotide phosphate] ratios (n) were calculated according to the Scatchard Equation[63] ^, [64]. Values for Ks and n given in Table 1 all have satisfying correlation coefficients (0.99).
(§4) The binding constants logKs and the density of the binding sites n were calculated using Scatchard plot analysis. In addition, the binding constants Ks for compounds 8b and 8e were calculated only for titration data taken at the r ≥ 0.1, because below that ratio changes in absorption maxima were too small for accurate calculation (ΔA ≤ 0.04) (Table 1). The binding constants Ks and ratios n obtained by processing UV–Vis titration data using the Scatchard equation are summarised in Table 1.

polyA-polyU [1] = assay: UV–Vis titration with polyA-polyU (Scatchard); format: binding; conditions: for Hypochromic effect H/%, polyA-polyU: UV–Vis titration, calculated by Scatchard equation; for Hypochromic effect H/%, polyA-polyU / log Ks, polyA-polyU: PBS, pH 7; for log Ks, polyA-polyU: binding constant, Scatchard
Procedure: as §2, §3, §4

polyC-polyG = assay: UV–Vis titration with polyC-polyG (Scatchard); format: binding; conditions: PBS, pH 7; for log Ks, polyC-polyG: binding constant, Scatchard; for Hypochromic effect H/%, polyC-polyG: UV–Vis titration, calculated by Scatchard equation
Procedure: as §2, §3, §4

ctDNA = assay: Thermal melting (ΔTm) of ctDNA; format: binding, calf; conditions: PBS, pH 7; for ΔTm, ctDNA, r = 0.3: r = [compound]/[polynucleotide] 0.3, error ±0.5 °C
Procedure: (§5) T m experiments were conducted with a Perkin Elmer Lambda 25 spectrophotometer in 1 cm quartz cuvettes. The absorbance of the DNA/RNA-compound complex was monitored at 260 nm as a function of temperature. The absorbance of the ligands was subtracted from every curve, and the absorbance scale was normalised. The ΔT m values were calculated by subtracting T m of the free nucleic acid from T m of the complex. Every reported ΔT m value was the average of at least two measurements. The error of ΔT m is ±0.5 °C. All data were graphed and analysed using Origin software version 9.0.
(§6) Denaturation experiments were carried out at different amounts of the compounds (r = 0.1, 0.3, 0.5, and 0.7 eq; r = [compound]/[polynucleotide]) with ctDNA and polyA-polyU.

polyA-polyU [2] = assay: Thermal melting (ΔTm) of polyA-polyU; format: binding; conditions: for ΔTm, polyA-polyU, r = 0.1: PBS, pH 7; for ΔTm, polyA-polyU, r = 0.3 / ΔTm, polyA-polyU, r = 0.5: first melting midpoint; for ΔTm, polyA-polyU, r = 0.3, second melting midpoint / ΔTm, polyA-polyU, r = 0.5, second melting midpoint: footnote c: biphasic melting curve
Procedure: as §5, §6

S. aureus MRSA = assay: Broth microdilution MIC, MRSA clinical strain; format: cell-based; conditions: Staphylococcus aureus, antibiotic-resistant clinical strain
How it was run: (§7)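 MICs were set by CLSI broth microdilution in cation (Ca2+, Mg2+)-adjusted Mueller–Hinton broth, in triplicate. Panel: S. aureus ATCC 25923, MRSA, MSSA, E. faecalis, VRE E. faecium, E. coli ATCC 25925, P. aeruginosa ATCC 27853, A. baumannii ATCC 19606 and ESBL K. pneumoniae ATCC 27736.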

S. aureus MSSA = assay: Broth microdilution MIC, MSSA clinical strain; format: cell-based; conditions: Staphylococcus aureus
How it was run: as §7

E. faecium VRE = assay: Broth microdilution MIC, VRE clinical strain; format: cell-based; conditions: Enterococcus faecium
How it was run: as §7

S. aureus ATCC 25923 = assay: Broth microdilution MIC, S. aureus ATCC 25923; format: cell-based; conditions: Staphylococcus aureus, ATCC25923; Table S2
How it was run: as §1

E. faecalis ATCC 29212 = assay: Broth microdilution MIC, E. faecalis ATCC 29212; format: cell-based; conditions: Enterococcus faecalis, ATCC29212; Table S2
How it was run: as §1

K. pneumonia ATCC 700803 = assay: Broth microdilution MIC, K. pneumoniae ATCC 700803; format: cell-based; conditions: Klebsiella pneumoniae, ATCC700803; Table S2
How it was run: as §1

A. baumannii ATCC 19606 = assay: Broth microdilution MIC, A. baumannii ATCC 19606; format: cell-based; conditions: Acinetobacter baumannii, ATCC19606; Table S2
How it was run: as §1

[3] = test system: bloodstream form T. brucei (strain 221); assay: Anti-trypanosomal screening, resazurin; format: cell-based; conditions: Trypanosoma brucei, mean of triplicate ± SEM
Procedure: Bloodstream form T. brucei (strain 221) were cultured in modified Iscove’s medium, as outlined[67] and trypanocidal assays were performed using 96-well microtitre plates. […] Resazurin was added after 48 h, the plates incubated for a further 16 h, and then read in a Spectramax plate reader (Molecular Devices Corporation, San Jose, CA). The data were analysed using GraphPad Prism (GraphPad, La Jolla, CA). Each drug concentration was tested in triplicate.

[4] = test system: polyA-polyU (RNA, polymer) A/U; assay: UV melting at 260 nm; conditions: PBS, I = 0.05 M, cations not specified, pH 7, r = 0.3 [compound]/[polynucleotide]
[5] = test system: polyA-polyU (RNA, polymer) A/U; assay: UV-Vis titration, Scatchard; conditions: PBS, I = 0.05 M (Table 1 says I = 0.015 M), cations not specified, I = 0.015 M (Methods: 0.05 M)
[6] = test system: polyG-polyC (polyC-polyG) (RNA, polymer) G/C; assay: UV-Vis titration, Scatchard; conditions: PBS, I = 0.05 M (Table 1 says I = 0.015 M), cations not specified, I = 0.015 M (Methods: 0.05 M)

Row | Compound | MIC (E. coli ESBL) [µg/mL] | MIC (P. aeruginosa ESBL) [µg/mL] | MIC (E. coli ATCC 25925) [µg/mL] | MIC (P. aeruginosa ATCC 27853) [µg/mL] | Hypochromic effect H/%, ctDNA (calf thymus ctDNA) [%] | log Ks, ctDNA (calf thymus ctDNA) | log Ks, polyA-polyU (polyA-polyU [1]) | log Ks, polyC-polyG (polyC-polyG) | ΔTm, ctDNA, r = 0.5 (ctDNA) [°C] | ΔTm, ctDNA, r = 0.7 (ctDNA) [°C] | ΔTm, ctDNA, r = 0.3 (ctDNA) [°C] | ΔTm, polyA-polyU, r = 0.1 (polyA-polyU [2]) [°C] | ΔTm, polyA-polyU, r = 0.3 (polyA-polyU [2]) [°C] | ΔTm, polyA-polyU, r = 0.5 (polyA-polyU [2]) [°C] | MIC (S. aureus MRSA) [µg/mL] | MIC (S. aureus MSSA) [µg/mL] | MIC (E. faecium VRE) [µg/mL] | MIC (S. aureus ATCC 25923) [µg/mL] | MIC (E. faecalis ATCC 29212) [µg/mL] | MIC (K. pneumonia ATCC 700803) [µg/mL] | other results
1 | CC(C)(O/N=C(\C(=O)N[C@@H]1C(=O)N2C(C(=O)[O-])=C(C[n+]3ccccc3)CS[C@H]12)c1csc(N)n1)C(=O)O [Ceftazidime, ceftazidime, reference compound] | 8 (≈ 14.6 µM) | 32 (≈ 58.5 µM) | 0.5 (≈ 0.915 µM) | 4 (≈ 7.32 µM) |  |  |  |  |  |  |  |  |  |  |  |  |  |  |  |  | MIC (K. pneumoniae ESBL): > 128 µg/mL
2 | N=C(N)c1ccc2[nH]c(-c3ccc(OCc4cn(-c5ccccc5)nn4)cc3)nc2c1 [Compound 7a] | 4 (≈ 9.77 µM) | 128 (≈ 313 µM) | 32 (≈ 78.2 µM) | 128 (≈ 313 µM) | 7.8 | 6.76 | 5.24 | 6.44 | 4.84 | 4.69 | 2.46 | 1.74 | 1.74 | 2.53 | 16 (≈ 39.1 µM) | 32 (≈ 78.2 µM) | 32 (≈ 78.2 µM) | 32 (≈ 78.2 µM) | 64 (≈ 156 µM) | 128 (≈ 313 µM) | Hypochromic effect H/%, polyA-polyU (polyA-polyU [1]): 19.3%; MIC (K. pneumoniae ESBL): 8 µg/mL (≈ 19.5 µM); MIC (A. baumannii ATCC 19606): > 256 µg/mL; IC50 [3]: 8.6 ± 0.5 µM; IC90 [3]: 16.2 ± 0.9 µM; ΔTm ([4]; error ±0.5, per base): 1.74 °C; log Ks ([5]; pH 7, per base): 5.24; log Ks ([6]; pH 7, n fixed, per base): 6.44
3 | c1ccc(Cn2cc(COc3ccc(-c4nc5cc(C6=NCCN6)ccc5[nH]4)cc3)nn2)cc1 [Compound 9d] | 128 (≈ 285 µM) | 128 (≈ 285 µM) | 128 (≈ 285 µM) | 128 (≈ 285 µM) | 24.6 | 5.84 | 5.89 | 6.59 | 3.52 | 2.60 | 3.31 | 1.26 | 1.42 | 2.06 | 64 (≈ 142 µM) | 64 (≈ 142 µM) | 64 (≈ 142 µM) | 64 (≈ 142 µM) | 128 (≈ 285 µM) | > 256 | Hypochromic effect H/%, polyA-polyU (from experimental data) (polyA-polyU [1]; footnote e: calculated from experimental data): 55.5 ^e %; Hypochromic effect H/%, polyC-polyG (polyC-polyG): 5.89%; ΔTm, polyA-polyU, r = 0.3, second melting midpoint (polyA-polyU [2]): 10.30^c °C; ΔTm, polyA-polyU, r = 0.5, second melting midpoint (polyA-polyU [2]): 13.29^c °C; MIC (A. baumannii ATCC 19606): > 256 µg/mL; IC50 [3]: 10.8 ± 0.4 µM; IC90 [3]: > 25 µM; ΔTm ([4]; error ±0.5, biphasic, second midpoint 10.30, per base): 1.42 °C; log Ks ([5]; pH 7, n fixed, per base): 5.89; log Ks ([6]; pH 7, per base): 6.59
4 | Cl.Cl.c1ccc(SCn2cc(COc3ccc(-c4nc5cc(C6=NCCN6)ccc5[nH]4)cc3)nn2)cc1 [Compound 9e, 5–(4,5-Dihydro-1H-imidazol-2-yl)-2–(4-((1-(phenylthiomethyl)-1H-1,2,3-triazol-4-yl)methoxy)phenyl)-1H-benz[d]imidazole dihydrochloride] | 64 | 64 | 64 | 128 | 41.1 | 6.21 | 5.36 | 4.29 | 3.47 | 3.60 | 2.87 | 1.11 | 0.47 | 0.47 | 64 | 64 | 32 | 32 | 128 | > 256 | Hypochromic effect H/%, polyA-polyU (polyA-polyU [1]): 31.6%; Hypochromic effect H/%, polyC-polyG (polyC-polyG): 5.21%; ΔTm, polyA-polyU, r = 0.3, second melting midpoint (polyA-polyU [2]): 12.46^c °C; ΔTm, polyA-polyU, r = 0.5, second melting midpoint (polyA-polyU [2]): 13.89^c °C; MIC (A. baumannii ATCC 19606): > 256 µg/mL; IC50 [3]: 9.7 ± 0.2 µM; IC90 [3]: 14 ± 0.3 µM; melting point: 162 to 164 °C; log Ks ([5]; pH 7, per base): 5.36; log Ks ([6]; pH 7, n fixed, per base): 4.29
